{
  "source": "patent US20060194826A1",
  "about": "“Pharmaceutical combinations of hydrocodone and naltrexone” (EURO-CELTIQUE S.A., priority 2003, published 2006)",
  "key": {"[1]": {"system": "subjects receiving methadone maintenance therapy", "assay": "Double-blind crossover, subjective and physiologic opioid agonist/antagonist measures (Example 6)"}, "[2]": {"system": "normal, healthy, adult male and female volunteers", "assay": "Safety assessment (Example 5)", "experimental": "(§1) In Example 5, a single center, placebo controlled, double-blind, randomized 9-treatment, 3 period crossover trial with an open-label screening phase was conducted."}, "[3]": {"system": "healthy volunteers with hyperalgesia", "assay": "Subjective Symptom Rating Scale and Drug Rating Questionnaire (Example 7)", "assay_type": "in vivo, human", "experimental": "(§2) Example 7 consisted of a single center trial conducted as a placebo-controlled, double-blind, randomized, 4-treatment, 4-period crossover study, which included a single-blind phase. Each treatment sequence consisted of 4 treatment periods, each of 4 hours duration, separated by at least a 5-day washout interval. […] The total duration of this study, including screening, was approximately 52 days.\n(§3) After at least 5 days, those subjects who successfully completed the single-blind phase were randomized into the double-blind phase of the study. Healthy male and female volunteers were enrolled in this study.\n(§4) The same test measurements conducted at baseline were then conducted at 0.5, 1, 2, 3, and 4 hours postdosing. Thermal Discomfort and Pain Latency testing were conducted at each time point on the control site (area on the other forearm, which was not subjected to the thermal stimulus). Testing on the control site was done prior to the test site for each time point. Each subject rested and recovered for no less than 5 days before returning for the next period. In the follow-up phase, subjects returned to the clinic within 7 days after completion of the study for a final check of the test site and a review of the subject's laboratory data prior to official discharge from the study.\nThe Symptom Rating Scale Questionnaire consisted of 25 items. […]"}, "healthy volunteers": {"system": "healthy volunteers", "assay": "Safety and adverse events (Example 7)", "assay_type": "in vivo, human", "experimental": "as §2\nAn AE (adverse event) was defined as any unfavorable and unintended sign (including abnormal laboratory findings), symptom or disease temporally associated with the use of a medicinal product, whether or not considered related to the medicinal product. An AE was classified as a TEAE (treatment emergent adverse event) only if the AE occurred after the first dose of the study drug was administered to a subject who was enrolled in the study. The period of observation for TEAEs was from the time that the first dose of study medication was administered until release from the study after completion of period 4 or at early discontinuation. All AEs reported by the subject or observed by the investigator/study staff were fully documented throughout the study. When AEs were encountered that required medical intervention, appropriate supportive and/or definitive therapy was provided by appropriately qualified and licensed medical personnel. […]"}, "[4]": {"system": "healthy volunteers with hyperalgesia", "assay": "Pupillometry (Example 7)", "assay_type": "in vivo, human", "experimental": "Each treatment sequence consisted of 4 treatment periods, each of 4 hours duration, separated by at least a 5-day washout interval. […] The total duration of this study, including screening, was approximately 52 days.\nas §3, §4\nPupillometry was performed to measure the effect of the study treatment on pupil diameter. The pupil was photographed using a Polaroid One-Step Closeup Camera (Polaroid Corporation, Cambridge, Mass.) with modified 2× magnification oculars (John Hopkins University, Baltimore, Md.) and Polaroid 600 color film (Polaroid Corporation, Cambridge, Mass.). […] The camera was positioned on the subject's eye socket, aligning the iris with the middle of the opening of the lens adapter. The pupil diameter was measured from the photograph, in millimeters, using Model CD-6C Mitutoyo digital calipers (Judge Tool Sales, Southport, Conn.). The same eye was measured at all times for each subject."}, "[5]": {"system": "minute ventilation in normal, healthy, adult male and female volunteers", "assay": "CO2 rebreathing test, double-blind crossover trial (Example 5)", "assay_type": "in vivo, human", "settings": "oral NTX 0.125 to 8.0 mg with 15, 20 or 25 mg oral HYIR", "experimental": "as §1"}, "[6]": {"system": "subjects receiving methadone maintenance therapy", "assay": "Safety measures, double-blind phase (Example 6)", "assay_type": "in vivo, human", "settings": "with increasing NTX dose; most mild or moderate"}, "[7]": {"system": "subjects on methadone maintenance therapy", "assay": "Open-label naltrexone titration safety assessment (Example 6)", "assay_type": "in vivo, human", "settings": "2 subjects, 30 mg hydrocodone at 0 hr, naltrexone at hourly intervals, oral", "experimental": "Example 6 consisted of open-label and double-blind treatment phases conducted in male and female subjects receiving daily oral methadone maintenance doses from 60 to 90 mg. The methadone maintenance dose was given to the subject the day before each scheduled period. Administration of study medication occurred no sooner than 16 hours and no later than 22 hours after the methadone maintenance dose was given. 14 subjects were enrolled in the study (2 subjects, open-label phase (ascending dose naltrexone safety assessment) and 12 subjects, double-blind phase).\nThe open-label phase was a safety assessment of the 2 naltrexone doses (0.75 and 2.0 mg) planned in the protocol in subjects on methadone maintenance therapy. This phase of the study consisted of a screening visit conducted up to 14 days before administration of study drug, and a naltrexone titration visit. During the naltrexone titration visit, 2 subjects were to receive 30 mg of hydrocodone and 0.125 mg of naltrexone at 0 hr, with additional doses of naltrexone, up to a cumulative dose of 2.0 mg, administered at hourly intervals over the next 4 hours. In the open-label phase, neither subject received more than a 1.0-mg cumulative dose of naltrexone before rescue with methadone was required. […]"}, "[8]": {"system": "healthy volunteers with hyperalgesia", "assay": "Thermal Discomfort and Pain Latency testing (Example 7)", "assay_type": "in vivo, human", "experimental": "as §2, §3\nA test site and a control site were selected on each forearm and marked with a washable marker. Next, the topical anesthetic was applied to the test site. After approximately 1.5 hours (allowing for the anesthetic to take effect), the cream was removed and a thermal stimulus was applied to the test site for 3 minutes using a copper mass heated to 52° C. […]\nThermal Discomfort testing was designed to measure a subject's perception of discomfort following a 5-second contact with a warmed 1″ diameter copper mass (Uniformed Services University of the Health Sciences, Bethesda, Md.). […] The distance from the left anchor to the vertical mark was measured and was used as the quantitative measure of Thermal Discomfort. […]"}, "[9]": {"settings": "0.25-mg NTX dose with 30 mg HYIR"}, "[10]": {"settings": "0.5-mg NTX dose with 30 mg HYIR"}},
  "note": "Entries after “also recorded” stand apart in the source; their conditions may differ.",
  "data": [
    {"smiles": "COc1ccc2c3c1O[C@H]1C(=O)CC[C@H]4[C@@H](C2)N(C)CC[C@]314.O=C(O)C(O)C(O)C(=O)O", "note": "[HYIR, Hydrocodone bitartrate]", "values": [
      {"measurement": "changes from predose in all pharmacodynamic variables", "setting": "[1]; 30 mg HYIR plus NTX placebo", "result": "minimal changes from predose"},
      {"measurement": "subjects requiring a rescue dose of methadone", "setting": "[1]; 30 mg HYIR plus NTX placebo", "result": "4 of the 12"},
      {"measurement": "subjective or physiologic opioid agonist activity", "setting": "[1]; 30-mg oral dose of HYIR", "result": "did not produce significant subjective or physiologic opioid agonist activity"},
      {"measurement": "trend of treatment means (PDmax and AUC) over the 3 periods, FIGS. 1-12", "setting": "[1]; HYIR+NTX placebo treatment", "result": "increase in subjective and physiologic opioid agonist effects"},
      {"measurement": "safety concerns", "setting": "[2]; 15-, 20-, or 25-mg doses of HYIR", "result": "no new safety concerns"}
    ]},
    {"smiles": "O=C1CC[C@@]2(O)[C@H]3Cc4ccc(O)c5c4[C@@]2(CCN3CC2CC2)[C@H]1O5", "note": "[NTX, Naltrexone HCI]", "values": [
      {"measurement": "aversive effects in methadone-maintained subjects", "setting": "[1]; 0.25- and 0.5-mg oral NTX doses", "result": "elicit aversive effects"},
      {"measurement": "negative feeling states and antagonist activity (precipitated withdrawal)", "setting": "[1]; [9]", "result": "threshold dose with a trend toward negative feeling states"},
      {"measurement": "subjects requiring a rescue dose of methadone", "setting": "[1]; [9]", "result": "Approximately 60%"},
      {"measurement": "difference from NTX placebo treatment in mean PDmax, all queries except \"Feeling sick\"", "setting": "[1]; [10]", "result": "statistically significant differences"},
      {"measurement": "precipitated withdrawal (Drug Effects Scales, antagonist total score, pupil diameter vs NTX placebo)", "setting": "[1]; [10]", "result": "strong evidence of precipitated withdrawal"},
      {"measurement": "subjects requiring a rescue dose of methadone", "setting": "[1]; [10]", "result": "~90", "unit": "%"},
      {"measurement": "negative feeling states and precipitated withdrawal, dose dependence", "setting": "[1]; NTX 0.25 and 0.5 mg with 30 mg HYIR", "result": "dose-dependent increases in negative feeling states and precipitated withdrawal"},
      {"measurement": "effect on all secondary pharmacodynamic variables except the agonist total scores from the Subjective and Observer Symptom Rating Scales", "setting": "[1]; NTX 0.25 and 0.5 mg with 30 mg HYIR, not always statistically significant", "result": "dose-related effect"},
      {"measurement": "effect on mean PDmax values for all 4 queries on the Subjective Drug Effects Scale", "setting": "[1]; NTX 0.25 to 0.5 mg with 30 mg HYIR", "result": "dose-related effect"},
      {"measurement": "appeal and abuse liability potential of HYIR", "setting": "[1]; low dose NTX added to HYIR, subjects physically dependent on opioids", "result": "decreased the appeal"},
      {"measurement": "subjective opioid agonist effects of HYIR (Subjective Symptom Rating Scale and Subjective Drug Rating Questionnaire)", "setting": "[3]; 15 mg HYIR with placebo, 0.25, 0.5 or 1.0 mg NTX", "result": "no statistically significant differences among the treatments or consistent NTX dose-related trends"},
      {"measurement": "NTX dose-related effect on the subjective opioid agonist activity of the 15-mg dose of HYIR", "setting": "[3]; NTX 0.25, 0.5, 1.0 mg", "result": "no consistent NTX dose-related effect"},
      {"measurement": "number of reported TEAEs commonly associated with opioid use", "setting": "healthy volunteers; 15 mg HYIR with increasing NTX dose", "result": "decreased with increased NTX dose"},
      {"measurement": "safety concerns", "setting": "healthy volunteers; 15 mg of oral HYIR combined with 0.25, 0.5, or 1.0-mg NTX", "result": "no safety concerns"},
      {"measurement": "statistically significant increase in pupil diameter PDmax compared with HYIR+placebo NTX", "setting": "[4]; HYIR+0.5 mg NTX and HYIR+1.0-mg NTX", "result": "not"},
      {"measurement": "NTX dose-related effect on the physiologic opioid agonist activity of the 15-mg dose of HYIR", "setting": "[4]; NTX 0.25, 0.5, 1.0 mg", "result": "no consistent NTX dose-related effect"},
      {"measurement": "HYIR-induced pupil constriction", "setting": "[4]; all NTX doses (0.25, 0.5, 1.0 mg) with 15 mg HYIR", "result": "reduced HYIR-induced pupil constriction"},
      {"measurement": "effect on HYIR-induced respiratory depression (% MPE20, % MPE30, double-blind MPE20 and MPE30)", "setting": "[5]", "result": "statistically significant trend toward less respiratory depression; also recorded: blocked respiratory depression"},
      {"measurement": "treatment-emergent adverse events commonly associated with opioid withdrawal per subject", "setting": "[6]", "result": "increase in the number of treatment-emergent adverse events"},
      {"measurement": "safety concerns", "setting": "[2]; NTX 0.125 to 8.0 mg combined with 15, 20 or 25 mg HYIR", "result": "no new safety concerns"},
      {"measurement": "cumulative dose of naltrexone received before rescue with methadone was required", "setting": "[7]", "result": "≤ 1.0", "unit": "mg"},
      {"measurement": "difference vs HYIR+placebo NTX in mean Thermal Discomfort VAS scores, Pain Latency, derived pharmacodynamic metrics of hyperalgesia", "setting": "[8]; 15 mg HYIR + 0.25-, 0.5-, or 1.0-mg NTX, oral", "result": "no statistically significant differences"},
      {"measurement": "reduction of the analgesia produced by 15 mg oral HYIR (Thermal Discomfort VAS scores and Pain Latency testing)", "setting": "[8]; NTX 0.25, 0.5, or 1.0-mg", "result": "None of the doses of NTX used in this study (0.25, 0.5, or 1.0-mg) produced a statistically significant reduction"}
    ]}
  ]
}
